# Experimental data reported in US20220356176A1, “Kv11.1-3.1 INHIBITING METHODS AND COMPOSITIONS” (The Johns Hopkins University, priority 2019, published 2022).
# Structures can show the parent of a compound that is named as a salt.
# Molecular target: T1, KCNH2-3.1 (Kv11.1-3.1 containing potassium channel; hERG 3.1) (Homo sapiens, UniProt Q12809)
# T1 construct: expressed in transfected cells; host or cells: U2OS cells transduced with hERG 3.1 BacMam virus
# Test: KCNH2-3.1 inhibition ion (thallium) flux assay, FluxOR
# Type: cell-based
# Settings: U2OS cells transduced with hERG 3.1 Bacmam virus, 5 minutes compound incubation, read-out: Activity range (IC50)
# Excerpt: The ability of the presently disclosed compounds to inhibit the activity of the ion channel produced from the KCNH2-3.1 transcript may be determined by methods known to those in the art for measuring ion channel inhibition. One method for measuring ion channel activity uses a thallium flux assay (Titus et al., 2009; FluxOR™ kit from Life Technologies). This assay measures the passage of thallium through the channel as indicated by a thallium sensitive dye loaded into the cell.
# The ability of compounds to inhibit the activity of KCNH2-3.1 was determined by an ion flux assay as described (Titus et al, 2009, which is incorporated herein by reference). U2OS cells were cultured in media containing DMEM, 10% FBS, and Penicillin/Streptomycin. Cells were grown to 90% confluency then washed with PBS and pelleted. Cells were resuspended in DMEM containing 2% FBS and incubated with hERG or hERG 3.1 Bacmam virus for 4 hours at room temperature in the dark. Cells were plated onto clear-bottom PDL coated 1536 well plates and allowed to grow 16-20 hours at 37° C. FluxOr loading buffer containing 10mM Red Dye #40 was added to each well and incubated for 45 minutes. Plates were loaded and analyzed in Hamamatsu FDSS (7000) using a two-addition protocol. In the first addition step of the assay, compounds to be tested and the cell compound mixture were incubated together for 5 minutes before addition of FluxOr stimulus buffer as the second addition step. Channel activity was detected and analyzed via the slope of fluorescence intensities versus the time of first 30 s after compound addition was calculated from the kinetic results. The signal-to-basal ratio was calculated as the slope of DMSO solvent controls in the stimulated group divided by the slope of an unstimulated group. The concentration responses of compound inhibition from the experiments were analyzed with Prism software (GraphPad, San Diego, Calif., USA).
# As the data herein indicate, a broad variety of compounds of formula (I), formula (II), or formula (III) were found effective as KCNH2-3.1 containing potassium channel inhibitors at low concentrations. […] In the Table 1 below, a single plus (+) is associated with an IC50 of from about 2-10 μM; two plus signs (++) is associated with an IC50 from about 500 nM to about 2 μM; and three plus signs (+++) is associated with an IC50 less than about 500 nM.
# T1 sequence (Q12809 1-1063 isoform Q12809-7): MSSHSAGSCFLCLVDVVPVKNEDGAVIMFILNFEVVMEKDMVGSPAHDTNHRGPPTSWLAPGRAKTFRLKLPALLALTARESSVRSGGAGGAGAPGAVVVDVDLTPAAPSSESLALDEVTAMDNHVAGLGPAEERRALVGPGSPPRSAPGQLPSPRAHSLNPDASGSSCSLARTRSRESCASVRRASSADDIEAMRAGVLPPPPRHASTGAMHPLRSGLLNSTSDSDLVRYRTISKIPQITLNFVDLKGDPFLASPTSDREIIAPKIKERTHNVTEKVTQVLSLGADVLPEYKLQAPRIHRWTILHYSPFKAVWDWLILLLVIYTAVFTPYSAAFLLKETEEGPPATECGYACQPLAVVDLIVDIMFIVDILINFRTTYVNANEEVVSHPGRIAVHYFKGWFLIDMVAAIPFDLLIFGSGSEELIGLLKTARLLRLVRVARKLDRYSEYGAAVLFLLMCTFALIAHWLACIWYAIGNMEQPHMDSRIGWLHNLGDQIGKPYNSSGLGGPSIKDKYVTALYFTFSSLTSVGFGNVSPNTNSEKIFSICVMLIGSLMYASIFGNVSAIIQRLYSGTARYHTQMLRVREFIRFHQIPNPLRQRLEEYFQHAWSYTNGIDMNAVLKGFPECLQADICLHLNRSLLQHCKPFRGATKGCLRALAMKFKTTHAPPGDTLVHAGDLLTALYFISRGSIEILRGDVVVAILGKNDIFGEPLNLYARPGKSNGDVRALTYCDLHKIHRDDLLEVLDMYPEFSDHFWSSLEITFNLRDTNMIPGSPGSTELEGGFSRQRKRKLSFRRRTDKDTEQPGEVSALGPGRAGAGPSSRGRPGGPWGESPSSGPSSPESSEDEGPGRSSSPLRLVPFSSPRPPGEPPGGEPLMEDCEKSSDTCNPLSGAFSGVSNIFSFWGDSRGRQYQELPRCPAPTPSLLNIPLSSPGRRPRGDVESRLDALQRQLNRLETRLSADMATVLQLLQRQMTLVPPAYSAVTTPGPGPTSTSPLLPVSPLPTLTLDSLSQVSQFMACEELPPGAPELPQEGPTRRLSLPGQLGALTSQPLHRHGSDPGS
row,Compound,IC50 [µM]
1,"O=C(CN1C2CCC1CC2)Nc1ccc(N2CCCCCC2)nc1 [Example 26, 2-(7-azabicyclo[2.2.1]heptan-7-yl)-N-[6-(azepan-1-yl)-3-pyridyl]acetamide]",0.5 to 2
2,O=C(CCN1CCCCC1)Nc1ccc(N2CCCCCC2)cc1 [Example 23],2 to 10
3,"O=C(CN1CCCCC1C(F)(F)F)Nc1ccc(N2CCCCCC2)cc1 (stereo not shown) [Example 9, N-[4-(azepan-1-yl)pheny]-2-[2-(trifluoromethyl)-1-piperidyl]acetamide]",0.5 to 2
4,"O=C(CN1CCCCC1CO)Nc1ccc(N2CCCCCC2)cc1 (stereo not shown) [Example 11, N-[4-(azepan-1-yl)phenyl]-2-[2-(hydroxymethyl)-1-piperidyl]acetamide]",2 to 10
5,O=C(CN1CCCCC1)Nc1ccc(N2CCCCCC2)cn1 [Example 34],2 to 10
6,"O=C(CNCc1ccccc1)Nc1ccc(N2CCCCCC2)nc1 [Example 31, N-[6-(azepan-1-yl)-3-pyridyl]-2-(benzylamino)acetamide]",2 to 10
7,"O=C(CN1CCCCC1)Nc1ccc(N2CCCCCC2)cc1F [Example 38, N-4-(azepan-1-yl)-2-fluoro-phenyl1-2-(1-piperidyl)acetamide]",2 to 10
8,"N#Cc1cccc(C2CCN(CC(=O)Nc3ccc(N4CCCCCC4)cc3)CC2)c1 [Example 18, N-[4-(azepan-1-yl)phenyl]-2-[4-(3-cyanophenyl)-1-piperidyl]acetamide]",< 0.5
9,"O=C(CN1CCCCC1)Nc1cnc(N2CCCCCC2)nc1 [Example 35, N-[2-(azepan-1-yl)pyrimidin-5-yl]-2-(1-piperidyl)acetamide]",0.5 to 2
10,"O=C(CN1CCCC1)Nc1ccc(N2CCCCCC2)cc1 [Example 14, N-[4-(azepan-1-yl)phenyl]-2-pyrrolidin-1-yl-acetamide hydrochloride]",2 to 10
11,"O=C(CN1CCCCC1)Nc1ccc(N2CCCCCC2)c(F)c1 [Example 36, N-[4-(azepan-1-yl)-3-fluoro-phenyl]-2-(1-piperidyl)acetamide]",< 0.5
12,"O=C(CNC1CCCCC1)Nc1ccc(N2CCCCCC2)nc1 [Example 27, N-[6-(azepan-1-yl)-3-pyridyl]-2-[cyclohexylamino]acetamide]",2 to 10
13,CN(CC(=O)Nc1ccc(N2CCCCCC2)nc1)C1CCCCC1 [Example 28],2 to 10
14,"O=C(CN1CCCC(OCc2ccccc2)C1)Nc1ccc(N2CCCCCC2)cc1 (stereo not shown) [Example 22, N-[4-(azepan-1-yl)phenyl]-2-(3-benzyloxy-1-piperidyl)acetamide]",0.5 to 2
15,"O=C(CN1CCCC(F)C1)Nc1ccc(N2CCCCCC2)cc1 (stereo not shown) [Example 8, N-[4-(azepan-1-yl)phenyl]-2-(3-fluoro-1-piperidyl)acettamide]",0.5 to 2
16,"O=C(CN1CCCCC1)Nc1ccc(N2CCCCCC2)nc1 [Example 25, N-[6-(azepan-1-yl)-3-pyridyl]-2-(1-piperidyl)acetamide]",0.5 to 2

row,Compound,IC50 [µM]
1,"CC(C)(O)C1CCN(CC(=O)Nc2ccc(N3CCCCCC3)cc2)CC1 [Example 12, N-[4-(azepan-1-yl)phenyl]-2-[4-(1-hydroxy-1-methyl-ethyl)-1-piperidyl]acetamide]",2 to 10
2,"O=C(CN1CCCCC1)Nc1ccc(N2CCCOCC2)cc1 [Example 1, N-[4-(1,4-oxazepan-4-yl)phenyl]-2-(1-piperidyl)acetamide hydrochloride]",2 to 10
3,"O=C(CNC1CCCCCC1)Nc1ccc(N2CCCCCC2)nc1 [Example 29, N-[6-(azepan-1-yl)-3-pyridyl]-2-(cycloheptylamino)acetamide]",0.5 to 2
4,"O=C(CN1CCCC(c2cccc(Cl)c2)C1)Nc1ccc(N2CCCCCC2)cc1 (stereo not shown) [Example 17, N-[4-(azepan-1-yl)phenyl]-2-[3-(3-chlorophenyl)-1-piperidyl]acetamide]",< 0.5
5,"CC(C(=O)Nc1ccc(N2CCCCCC2)cc1)N1CCCCC1 (stereo not shown) [Example 24, N-[4-(azepan-1-yl)phenyl]-2-(1-piperidyl)propanamide]",2 to 10
6,"O=C(CN1CC2CCC(C2)C1)Nc1ccc(N2CCCCCC2)nc1 [Example 32, 2-(3-azabicyclo[3.2.1]octan-3-yl)-N-[6-(azepan-1-yl)-3-pyridyl]acetamide]",< 0.5
7,"CC1CCN(c2ccc(NC(=O)CN3CC4CCC3CC4)cn2)CC1 [Example 3, 2-(8-azabicyclo[3.2.1]octan-8-yl)-N-16-(4-methyl-1-piperidyl)-3-pyridyljacetamide]",0.5 to 2
8,"O=C(CN1CCC(O)(c2ccc(Cl)cc2)CC1)Nc1ccc(N2CCCCCC2)cc1 [Example 13, N-[4-(azepan-1-yl)phenyl]-2-[4-(4-chlorophenyl)-4-hydroxy-1-piperidyl]acetamide]",< 0.5
9,CC1CCCN(CC(=O)Nc2ccc(N3CCCCCC3)cc2)C1 (stereo not shown) [Example 15],2 to 10
10,"O=C(CN1CCCCC1c1ccc(Cl)cc1)Nc1ccc(N2CCCCCC2)cc1 (stereo not shown) [Example 16, N-[4-(azepan-1-yl)phenyl]-2-[2-(4-chlorophenyl)-1-piperidyl]acetamide]",0.5 to 2
11,"O=C(CN1CCC(c2ccc(F)cc2)C1)Nc1ccc(N2CCCCCC2)cc1 (stereo not shown) [Example 20, N-[4-(azepan-1-yl)phenyl]-2-[3-(4-fluorophenyl)pyrrolidin-1-yl]acetamide]",0.5 to 2
12,"O=C(CN1CCC(CO)CC1)Nc1ccc(N2CCCCCC2)cc1 [Example 10, N-[4-(azepan-1-yl)phenyl]-2-[4-(hydroxymethyl)-1-piperidyl]acetamide]",2 to 10
13,"CC1CC(c2ccccc2)CCN1CC(=O)Nc1ccc(N2CCCCCC2)cc1 (mixture of isomers) [Example 19, N-[4-(azepan-1-yl)phenyl]-2-(2-methyl-4-phenyl-1-piperidyl)acetamide]",0.5 to 2
14,"O=C(CNc1ccccc1)Nc1ccc(N2CCCCCC2)nc1 [Example 30, 2-anilino-N-[6-(azepan-1-yl)-3-pyridyl]acetamide]",0.5 to 2
15,"O=C(CN1CCCOCC1)Nc1ccc(N2CCCCCC2)cc1 [Example 7, N-[4-(azepan-1-yl)phenyl]-2-(1,4-oxazepan-4-yl)acetamide hydrochloride]",2 to 10
